Like-named read-outs stand apart in the source and are kept apart here.
Legend:
[1] = system: HCC827 cells (EGFR delE746-A750); assay: Cell proliferation (CellTiter Glo, 72 hr) in HCC827 cells; format: cell-based, human; conditions: Homo sapiens
Procedure: (§1) A431 human epidermoid carcinoma, H1975 human NSCLC and HCC827 human NSCLC adenocarcinoma cells were obtained from the American Type Culture Center (Manassas, Va.). A431 cells were grown in DMEM (Invitrogen, Carlsbad, Calif.) supplemented with 10% FBS (HyClone, South Logan, Utah) and 1% Penicillin-Streptomycin (P/S, Lonza, Walkersville, Md.).
(§2) Cells were plated in Growth Media supplemented with 5% FBS and 1% P/S at a density of 3,000 cells per well in 96 well tissue culture plates (Corning). […] Growth inhibition (GI50) values were determined by Graph Pad Prism.

[2] = system: H1975 cells (EGFR L858R/T790M); assay: Cell proliferation (CellTiter Glo, 72 hr) in H1975 cells; format: cell-based, human; conditions: Homo sapiens, NCI-H1975
Procedure: as §1, §2

[3] = target: EGFR double mutation L858R/T790M (H1975 cells) (Homo sapiens (Human), UniProt P00533, L858R/T790M); assay: Phospho-EGFR signaling (immunoblotting, 1 hr) in H1975 cells; format: cell-based; conditions: signaling EC50 WT (A431) / H1975
Procedure: as §1
(§3) All primary antibodies were obtained from Cell Signaling (Danvers, Mass.) and used at 1:1000. Secondary antibodies were used at 1:10,000. Goat anti-mouse IgG IRDye 800CW antibody was obtained from LiCor Biosciences (Lincoln, Nebr.) and goat anti-rabbit IgG Alexa Fluor 680 was obtained from Invitrogen.
(§4) Cells were grown in 12-well plates (Corning, Coring, N.Y.) to 90% confluence and then incubated in low-serum (0.1% FBS) media for 16-18 hr. […] A431 cells were then stimulated with 50 ng/ml EGF (Peprotech, Rocky Hill, N.J.) for 15 min. After treatment, cell monolayers were washed with cold PBS (Invitrogen) and immediately lysed by scrapping into 60 uL cold Cell Extraction Buffer (Invitrogen) supplemented with Complete Protease inhibitors (Roche, Indianapolis, Ind.) and PhosphoSTOP (Roche) phosphatase inhibitors.
(§5) Phospho-protein signals were quantitated using Odyssey Infrared Imaging (Li-Cor Biosciences).
(§6) To assess phosphor-EGFR signaling, blots were probed with rabbit anti-Phospho-EGFR (Y1068) and mouse total anti-EGFR antibodies. Phospho-EGFR signal was normalized to total EGFR expression for each sample. […] Normalized data was fitted using a sigmoidal curve analysis program (Graph Pad Prism version 5) with variable Hill slope to determine the EC50 values.

[4] = system: A431 cells (WT EGFR); assay: Cell proliferation (CellTiter Glo, 72 hr) in A431 cells; format: cell-based; conditions: Homo sapiens, A-431
Procedure: as §1, §2

[5] = target: pEGFR in H1975 cells (Homo sapiens (Human), UniProt P00533, L858R/T790M); assay: Washout experiment in H1975 cells (pEGFR); format: cell-based; conditions: 500 nM for 1 hr; for pEGFR activity restored: 24 h after compound removal, by new protein synthesis; for inhibition at 0.5 µM: NCI-H1975
Procedure: Washout Experiment in H1975 Cells Containing EGFR Deletion/T790M Mutation
Cells were plated in Growth Media supplemented with 10% FBS and 1% P/S at a density of 2.0×10^5 cells per well in 12 well tissue culture plates. Cells were allowed to settle down for 4 hrs and then maintained in low-serum (0.1% FBS) media overnight.
The following morning the media was removed and the cells were treated with 500 nM test compound in low-serum media for 1 hr. The cells were washed free of compound 2× with PBS (Invitrogen). One set of cells were immediately lysed as indicated above as the 0 hr time point. The remaining cells were incubated with complete RPMI-1640 growth media (10% FBS) for 1, 3, 6 and 24 hr. For the first 1 hr, cells were washed 2× with PBS every 30 min. DMSO (0.5%) controls were collected at the 0, 3, 6 and 24 hr time points.

[6] = target: EGFR delE746-A750 deletion mutation (HCC827 cells) (Homo sapiens (Human), UniProt P00533, DEL746-750); assay: Phospho-EGFR signaling (immunoblotting, 1 hr) in HCC827 cells; format: cell-based; conditions: signaling EC50 WT (A431) / HCC827
Procedure: as §1, §3, §4, §5, §6

[7] = HCC827 cells, 72 hr, read-out: HCC827 GI50
[8] = Table 2, HCC827 express EGFR delE746-A750, read-out: Comparative GI50 Values, HCC827
[9] = H1975 cells, 72 hr, read-out: H1975 GI50
[10] = Table 2, H1975 express EGFR L858R/T790M, read-out: Comparative GI50 Values, H1975
[11] = A431 cells, 72 hr, read-out: WT EGFR GI50
[12] = Table 2, A431 cells express WT EGFR, read-out: Comparative GI50 Values, A431
[13] = 1 hr after compound removal, read-out: pEGFR phosphorylation inhibited
[14] = for at least 8 hours after compound was removed, read-out: pEGFR remained inhibited

| SMILES | GI50 [1, 7] | GI50 [1, 8] | GI50 [2, 9] | GI50 [2, 10] | Ratio WT/mutant (H1975) [3] | GI50 [4, 11] | GI50 [4, 12] | pEGFR activity restored [5] | inhibition at 0.5 µM [5, 13] | inhibition at 0.5 µM [5, 14] | Ratio WT/mutant (HCC827) [6] |
| --- | --- | --- | --- | --- | --- | --- | --- | --- | --- | --- | --- |
| C=CC(=O)Nc1cccc(Nc2nc(Nc3ccc(N4CCOCC4)cc3OC)ncc2C(F)(F)F)c1 [Compound I-2, N-(3-(2-(2-methoxy-4-morpholinophenylamino)-5-(trifluoromethyl)pyrimidin-4-ylamino)phenyl)acrylamide] | 10 to 100 nM | 10 to 100 nM | 10 to 100 nM | 10 to 100 nM | >50 | > 1000 nM | > 1000 nM | 40-60% | 80 to 100% | 60 to 90% |  |
| C=CC(=O)Nc1cccc(Nc2nc(Nc3ccc(N4CCN(C(C)=O)CC4)cc3OC)ncc2C(F)(F)F)c1 [Compound I-4, N-(3-(2-(4-(4-acetylpiperazin-1-yl)-2-methoxyphenylamino)-5-(trifluoromethyl)pyrimidin-4-ylamino)phenyl)acrylamide] | 10 to 100 nM | 10 to 100 nM | 10 to 100 nM | 10 to 100 nM |  | 500 to 1000 nM | 500 to 1000 nM | 40-60% | 80 to 100% | 60 to 90% |  |
| C=CC(=O)Nc1cccc(Oc2nc(Nc3ccc(N4CCN(C(=O)CO)CC4)cc3OC)ncc2C(F)(F)F)c1 [Compound I-11, N-(3-(2-(4-(4-(2-hydroxyacetyl)piperazin-1-yl)-2-methoxyphenylamino)-5-(trifluoromethyl)pyrimidin-4-yloxy)phenyl)acrylamide] | 10 to 100 nM |  | 100 to 500 nM |  | >15 | > 1000 nM |  |  |  |  |  |
| C=CC(=O)Nc1cccc(Nc2nc(Nc3ccc(N4CCN(C(=O)CO)CC4)cc3OC)ncc2Cl)c1 [Compound I-12, N-(3-(5-chloro-2-(4-(4-(2-hydroxyacetyl)piperazin-1-yl)-2-methoxyphenylamino)pyrimidin-4-ylamino)phenyl)acrylamide] | 10 to 100 nM |  | 100 to 500 nM |  | >1 | 500 to 1000 nM |  |  |  |  |  |
| C=CC(=O)Nc1cccc(Nc2nc(Nc3ccc(N4CCOCC4)cc3OC(F)F)ncc2C(F)(F)F)c1 [Compound I-14, N-(3-(2-(2-(difluoromethoxy)-4-morpholinophenylamino)-5-(trifluoromethyl)pyrimidin-4-ylamino)phenyl)acrylamide] | 10 to 100 nM |  | 100 to 500 nM |  | >15 | > 1000 nM |  |  |  |  | >15 |
| C=CC(=O)Nc1cccc(Nc2nc(Nc3ccc(N4CCN(S(C)(=O)=O)CC4)cc3OC)ncc2C(F)(F)F)c1 [Compound I-17, N-(3-(2-(2-methoxy-4-(4-(methylsulfonyl)piperazin-1-yl)phenylamino)-5-(trifluoromethyl)pyrimidin-4-ylamino)phenyl)acrylamide] | 10 to 100 nM |  | 100 to 500 nM |  | >30 | > 1000 nM |  |  |  |  | >5 |
| C=CC(=O)Nc1cccc(Oc2nc(Nc3ccc(N4CCN(C(=O)NC)CC4)cc3OC)ncc2C(F)(F)F)c1 [Compound I-21, 4-(4-(4-(3-acrylamidophenoxy)-5-(trifluoromethyl)pyrimidin-2-ylamino)-3-methoxyphenyl)-N-methylpiperazine-1-carboxamide] | 10 to 100 nM |  | 100 to 500 nM |  | >5 | 500 to 1000 nM |  |  |  |  |  |
| C=CC(=O)Nc1cccc(Oc2nc(Nc3ccc(N4CCN(S(C)(=O)=O)CC4)cc3OC)ncc2C(F)(F)F)c1 [Compound I-22, N-(3-(2-(2-methoxy-4-(4-(methylsulfonyl)piperazin-1-yl)phenylamino)-5-(trifluoromethyl)pyrimidin-4-yloxy)phenyl)acrylamide] | 10 to 100 nM |  | 100 to 500 nM |  | >35 | > 1000 nM |  |  |  |  |  |
| C=CC(=O)Nc1cccc(Oc2nc(Nc3ccc(N4CCN(S(C)(=O)=O)CC4)cc3OC)ncc2Cl)c1 [Compound I-26, N-(3-(5-chloro-2-(2-methoxy-4-(4-(methylsulfonyl)piperazin-1-yl)phenylamino)pyrimidin-4-yloxy)phenyl)acrylamide] | 10 to 100 nM |  | > 1000 nM |  | >40 | > 1000 nM |  |  |  |  |  |
| C=CC(=O)Nc1cccc(Nc2nc(Nc3ccc(N4CCN(C(C)=O)CC4)cc3OC(F)(F)F)ncc2C(F)(F)F)c1 [Compound I-33, N-(3-(2-(4-(4-acetylpiperazin-1-yl)-2-(trifluoromethoxy)phenylamino)-5-(trifluoromethyl)pyrimidin-4-ylamino)phenyl)acrylamide] | 100 to 500 nM |  | 10 to 100 nM |  | >50 | > 1000 nM |  |  |  |  |  |
| C=CC(=O)Nc1cccc(Nc2nc(Nc3ccc(N4CCN(C(=O)C(C)(C)C)CC4)cc3OC)ncc2C(F)(F)F)c1 [Compound I-34, N-(3-(2-(2-methoxy-4-(4-pivaloylpiperazin-1-yl)phenylamino)-5-(trifluoromethyl)pyrimidin-4-ylamino)phenyl)acrylamide] | 10 to 100 nM |  | 100 to 500 nM |  | >35 | > 1000 nM |  |  |  |  |  |
| C=CC(=O)Nc1cccc(Nc2nc(Nc3ccc(N4CCN(C(C)=O)CC4)cc3OC)ncc2Br)c1 [Compound I-40, N-(3-(2-(4-(4-acetylpiperazin-1-yl)-2-methoxyphenylamino)-5-bromopyrimidin-4-ylamino)phenyl)acrylamide] | 10 to 100 nM |  | 100 to 500 nM |  | >1 | 500 to 1000 nM |  |  |  |  |  |
| C=CC(=O)Nc1cccc(Nc2nc(Nc3ccc(N4CCN(S(C)(=O)=O)CC4)cc3OC)ncc2Cl)c1 [Compound I-41, N-(3-(5-chloro-2-(2-methoxy-4-(4-(methylsulfonyl)piperazin-1-yl)phenylamino)pyrimidin-4-ylamino)phenyl)acrylamide] | 10 to 100 nM |  | 100 to 500 nM |  | >1 | > 1000 nM |  |  |  |  |  |
| C=CC(=O)Nc1cccc(Nc2nc(Nc3ccc(N4CCCN(C(=O)OC(C)(C)C)CC4)cc3OC)ncc2C(F)(F)F)c1 [Compound I-44, tert-butyl 4-(4-(4-(3-acrylamidophenylamino)-5-(trifluoromethyl)pyrimidin-2-ylamino)-3-methoxyphenyl)-1,4-diazepane-1-carboxylate] | 500 to 1000 nM |  | 500 to 1000 nM |  | >5 | > 1000 nM |  |  |  |  |  |
| C=CC(=O)Nc1cccc(Nc2nc(Nc3ccc(N4CCN(C(C)=O)[C@H](C(=O)OC)C4)cc3OC)ncc2C(F)(F)F)c1 [Compound I-48] | 10 to 100 nM |  | 10 to 100 nM |  | >50 | > 1000 nM |  |  |  |  |  |
| C=CC(=O)Nc1cccc(Nc2nc(Nc3ccc(N4CCS(=O)(=O)CC4)cc3OC)ncc2C(F)(F)F)c1 [Compound I-49, N-(3-(2-(2-methoxy-4,4-dioxo-4-thiomorpholinophenylamino)-5-(trifluoromethyl)pyrimidin-4-ylamino)phenyl)acrylamide] | 10 to 100 nM |  | 100 to 500 nM |  | >20 | > 1000 nM |  |  |  |  |  |
